Test results: patent publication US10487056B2, “Small molecule androgen receptor inhibitors and methods of use thereof” (GEORGETOWN UNIVERSITY, priority 2015, dated 2019)

Experiments:
Format in all cases: cell-based
c-myc promoter = test: c-myc promoter-luciferase reporter in 22Rv1 cells; conditions: 1 μM, 24 hours
Method: 22Rv1 cells were transfected with c-myc promoter-luciferase reporter construct and Renilla luciferase plasmids (pRL-TK-Luc) and treated with 1 μM of SH-I-125 for 24 hours. Promoter activity was determined after normalization with Renilla luciferase activity. Columns, mean of three independent experiments with quadruplicate samples; bars, SEM.

22Rv1 cells = test: Cleaved caspase-3 and cleaved PARP by Western blot and immunofluorescence, 22Rv1 cells; conditions: SH-I-125 1 μM, three days
Method: 22Rv1 cells were treated with SH-I-125 (1 μM) for one, two, or three days, and caspase 3/7 activity was measured using Caspase-Glo 3/7 substrates. […] Data represent mean of three independent experiments with quadruplicate samples; bars, SEM. ***, p value <0.001 determined by ANOVA.
The presence of cleaved caspase-3 and cleaved PARP were determined. The cells were counterstained with 4′,6-diamidino-2-phenylindole (DAPI).
Western blotting was performed as described in Amin et al., Mol. Cancer Ther., 13:341-52 (2014). The following antibodies were used: Androgen receptor (N-20; Santa Cruz Biotechnology; Dallas, Tex.), PSA (A0562; Dako; Carpinteria, Calif.), β-actin (SC-47778; Santa Cruz Biotechnology), AR-V7 (AG10008; Precision Antibody; Columbia, Md.), cleaved PARP (9541; Cell Signaling Technologies, Danvers, Mass.), and cleaved caspase-3 (9664; Cell Signaling Technologies, Danvers, Mass.).
It was determined whether caspase activity and apoptosis were induced in 22Rv1 cells upon SH-I-125 treatment. […] Staurosporine was used as a positive control for apoptosis induction (FIG. 10B).

AR and AR-V7 = test: Quantitative RT-PCR of AR and AR-V7 mRNA in 22Rv1 cells; conditions: SH-I-125 1 μM, 1-3 days, normalized to GAPDH
Method: FIG. 12D is a graph showing the mRNA expression of AR and AR-V7 after treating 22Rv1 cells with SH-I-125 (1 μM) for 24 and 72 hrs. The AR and AR-V7 expression levels were assessed by qRTPCR and normalized to GAPDH expression levels.
Quantitative RT-PCR was performed using the protocol and the primers as described in Amin et al., Mol. Cancer Ther., 13:341-52 (2014).
To establish a mechanism by which SH-I-125 caused a decline in AR and AR-V7 levels, the relative expression of AR and AR-V7 in 22Rv1 cells that had been treated with SH-I-125 for a period of 1-3 days was measured. […] To determine whether proteasomal mechanisms are responsible for the decline in AR and AR-V7 levels, 22Rv1 cells were treated with 5 μM SH-I-125 for a period of 48 hours in the presence of proteasome inhibitor, MG132.

22Rv1-MDVR cells = test: Cell viability (MTT), 22Rv1-MDVR cells; conditions: MDV3100, ARN-509 10 μM, SH-I-125 range, 3 days
Method: Cell viability was measured using the MTT assay.
Cells were treated in the manner indicated below for the specified period of time.

AR = test: VCaP-MDVR-ARE-luc luciferase reporter assay; conditions: VCaP-MDVR-ARE-luc cells, range of doses, 24 hours
Method: […]. Luciferase activity was measured and plotted as a percentage of control. Data represent the mean of three independent experiments with quadruplicate samples; bars, SEM. ***, p value <0.001 determined by ANOVA.
VCaP-MDVR and 22Rv1-MDVR stably expressing ARE-luciferase construct (VCaP-MDVR-ARE-luc and 22Rv1-MDVR-ARE-luc) were generated as described above in the Materials and Methods section. […].

For `COc1ccc2c(c1)[nH]c1c(C)c(OS(=O)(=O)c3cccc4ccccc34)ccc12` [SH-I-125, 7-methoxy-1-methyl-9H-carbazol-2-yl naphthalene-1-sulfonate], the c-myc promoter-luciferase activity (c-myc promoter) was “unaffected”, the “cleaved caspase-3 and cleavage of PARP” value (22Rv1 cells) was “presence of cleaved caspase-3 and accompanied by the cleavage of PARP” and the “AR and AR-V7 message (mRNA) levels” value (AR and AR-V7) was “did not affect the message levels”. For the same molecule, the “cell growth / viability” value (22Rv1-MDVR cells) was “effective in preventing the growth” and the “inhibitory effect on AR activity (luciferase)” value (AR) was “retained its inhibitory effect”.
